Data from patent publication US11000033B2, “Ketone or oxime compound, and herbicide” (NISSAN CHEMICAL CORPORATION, priority 2014, dated 2021).

- melting point: 192 to 195 °C
SMILES: CON=C(C)CC1CC(OC)=C(c2c(C)cc(O)cc2C)C1=O (stereo not shown) [6-069]
